Our source for the IC50 values is patent US20190135793A1, “HETEROCYCLIC INHIBITORS OF KDM5 FOR THE TREATMENT OF DISEASE” (Board of Regents, The University of Texas System, priority 2017, published 2019).

The target of one experiment is T1, KDM5B (Homo sapiens, UniProt Q9UGL1).
T1 construct: Full length of KDM5B and KDM4C protein were purchased from Active Motif; purchased Active Motif 31832
Nature of the experiment: biochemical. The gist of the method:
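KDM5B (0.5 nM final) was preincubated with compound for 15 min at room temperature, then reacted with biotinylated peptide (3 nM final) for 25 min at room temperature.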

For the next experiment, the target named is T2, KDM4C (Homo sapiens, UniProt Q9H3R0).
T2 construct: Full length of KDM5B and KDM4C protein were purchased from Active Motif; purchased Active Motif 31858
T2 sequence (Q9H3R0 1-1056): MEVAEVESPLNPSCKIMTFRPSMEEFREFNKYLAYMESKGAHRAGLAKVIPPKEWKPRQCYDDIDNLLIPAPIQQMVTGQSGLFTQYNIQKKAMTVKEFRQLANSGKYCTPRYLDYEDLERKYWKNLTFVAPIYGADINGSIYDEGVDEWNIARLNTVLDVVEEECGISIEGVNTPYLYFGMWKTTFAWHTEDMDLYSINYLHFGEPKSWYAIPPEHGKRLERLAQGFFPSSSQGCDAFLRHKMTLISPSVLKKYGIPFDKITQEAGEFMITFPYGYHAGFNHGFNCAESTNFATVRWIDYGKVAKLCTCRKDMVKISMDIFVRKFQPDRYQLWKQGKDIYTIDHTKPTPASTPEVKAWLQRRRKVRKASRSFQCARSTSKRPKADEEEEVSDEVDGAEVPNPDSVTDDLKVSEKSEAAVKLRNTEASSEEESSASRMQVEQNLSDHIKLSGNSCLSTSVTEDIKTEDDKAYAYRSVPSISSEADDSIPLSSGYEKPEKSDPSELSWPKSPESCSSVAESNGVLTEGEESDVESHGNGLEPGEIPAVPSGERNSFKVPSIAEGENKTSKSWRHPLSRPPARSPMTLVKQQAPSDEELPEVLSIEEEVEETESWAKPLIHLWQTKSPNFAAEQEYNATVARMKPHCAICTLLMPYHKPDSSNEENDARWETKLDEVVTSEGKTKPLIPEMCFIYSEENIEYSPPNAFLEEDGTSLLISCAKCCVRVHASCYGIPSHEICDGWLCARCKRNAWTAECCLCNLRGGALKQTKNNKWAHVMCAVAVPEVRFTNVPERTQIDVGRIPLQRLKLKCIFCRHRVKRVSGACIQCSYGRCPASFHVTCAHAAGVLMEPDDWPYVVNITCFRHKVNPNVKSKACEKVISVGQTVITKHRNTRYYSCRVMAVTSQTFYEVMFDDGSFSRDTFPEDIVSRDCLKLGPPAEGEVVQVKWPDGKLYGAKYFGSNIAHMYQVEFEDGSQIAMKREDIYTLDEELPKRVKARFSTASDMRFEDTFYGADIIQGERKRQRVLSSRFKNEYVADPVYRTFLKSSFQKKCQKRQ
Description: KDM4C AlphaScreen assay. Format: biochemical. As to conditions: AlphaScreen; full length KDM4C 0.2 nM; biotinylated H3K9Me3 peptide 3 nM; 30 minutes at room temperature. The gist of the method: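 Full-length KDM4C (0.2 nM final) was preincubated 15 min at RT with compound in HEPES pH 7.4 with Tween-20, BSA and TCEP. The reaction ran 30 min at RT after adding biotinylated peptide (3 nM final) in buffer with Fe(II), α-ketoglutarate and ascorbate. EDTA-containing AlphaScreen beads stopped it; IC50 was curve-fitted.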
For orientation: Bead proximity is the source of the signal in Alpha formats.

Where [1] appears, read: AlphaScreen, full length KDM5B 0.5 nM, biotinylated H3K4Me3 peptide 3 nM, 25 minutes at room temperature, read-out: KDM5B (IC50).

Like-named read-outs stand apart in the source and are kept apart here.

T1 sequence (Q9UGL1 whole entry): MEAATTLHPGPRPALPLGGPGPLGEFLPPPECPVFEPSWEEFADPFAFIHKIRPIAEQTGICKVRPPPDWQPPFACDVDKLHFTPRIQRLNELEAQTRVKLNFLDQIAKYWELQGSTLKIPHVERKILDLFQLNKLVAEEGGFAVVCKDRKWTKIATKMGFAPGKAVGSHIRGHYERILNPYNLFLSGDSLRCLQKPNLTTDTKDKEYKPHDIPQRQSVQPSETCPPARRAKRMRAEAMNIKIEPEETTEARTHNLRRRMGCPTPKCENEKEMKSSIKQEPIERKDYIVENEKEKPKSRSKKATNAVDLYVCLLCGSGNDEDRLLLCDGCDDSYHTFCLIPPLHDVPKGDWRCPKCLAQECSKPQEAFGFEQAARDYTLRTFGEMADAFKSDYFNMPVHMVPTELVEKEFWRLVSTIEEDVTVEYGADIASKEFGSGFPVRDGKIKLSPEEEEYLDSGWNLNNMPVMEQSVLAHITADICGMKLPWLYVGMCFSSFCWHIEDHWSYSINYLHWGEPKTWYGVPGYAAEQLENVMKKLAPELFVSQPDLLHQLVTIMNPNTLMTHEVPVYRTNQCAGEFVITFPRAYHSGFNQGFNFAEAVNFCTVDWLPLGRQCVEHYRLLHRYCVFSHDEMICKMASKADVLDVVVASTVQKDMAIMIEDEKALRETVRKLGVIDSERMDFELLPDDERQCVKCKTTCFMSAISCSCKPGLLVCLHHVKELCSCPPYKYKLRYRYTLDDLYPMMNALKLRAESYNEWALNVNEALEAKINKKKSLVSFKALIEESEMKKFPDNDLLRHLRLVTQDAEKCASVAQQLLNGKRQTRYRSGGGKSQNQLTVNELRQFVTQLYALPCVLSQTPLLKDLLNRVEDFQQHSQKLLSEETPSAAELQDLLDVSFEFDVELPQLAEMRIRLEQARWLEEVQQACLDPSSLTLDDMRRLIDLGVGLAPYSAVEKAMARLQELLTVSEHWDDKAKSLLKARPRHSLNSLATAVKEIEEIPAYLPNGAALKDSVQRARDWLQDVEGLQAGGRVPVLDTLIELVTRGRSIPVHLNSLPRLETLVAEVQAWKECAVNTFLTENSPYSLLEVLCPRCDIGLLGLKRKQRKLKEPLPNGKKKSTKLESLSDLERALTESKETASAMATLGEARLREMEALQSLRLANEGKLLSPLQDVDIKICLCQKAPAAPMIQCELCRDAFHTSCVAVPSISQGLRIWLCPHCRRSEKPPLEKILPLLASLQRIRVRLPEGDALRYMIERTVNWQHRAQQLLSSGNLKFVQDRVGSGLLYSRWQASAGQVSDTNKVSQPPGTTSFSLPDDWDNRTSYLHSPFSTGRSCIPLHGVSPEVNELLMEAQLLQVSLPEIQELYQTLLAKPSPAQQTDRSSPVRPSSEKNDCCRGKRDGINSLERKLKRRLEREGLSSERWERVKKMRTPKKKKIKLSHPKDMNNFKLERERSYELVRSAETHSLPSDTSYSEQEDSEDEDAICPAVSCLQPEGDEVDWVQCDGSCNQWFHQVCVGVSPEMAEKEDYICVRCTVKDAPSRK

In general, IC50 refers to the midpoint of a concentration-inhibition curve. Regarding `CC(C)c1c(O)nc(-n2ccnc2)nc1-c1cccc(CNS(C)(=O)=O)c1` [Example 76, N-({3-[6-Hydroxy-2-(1H-imidazol-1-yl)-5-(propan-2-yl)pyrimidin-4-yl]phenyl}-methyl)methanesulfonamide], the IC50 against KDM5B was determined as 29 nM; on KDM4C it was 1860 nM.
`CC(C)c1c(O)nc(-n2ccnc2)nc1-c1cccc(CO)c1` [Example 77, 6-[3-(Hydroxymethyl)-phenyl]-2-(1H-imidazol-1-yl)-5-(propan-2-yl)pyrimidin-4-ol]: the figures for the IC50 on KDM5B and on KDM4C were 38 nM and 2460 nM, respectively.
For the compound `CC(C)c1c(O)nc(-n2ccnc2)nc1-c1cccc(C#N)c1` [Example 79, 3-[6-Hydroxy-2-(1H-imidazol-1-yl)-5-(propan-2-yl)pyrimidin-4-yl]benzonitrile], the IC50 on KDM5B was determined as 40 nM; against KDM4C it was 5190 nM.
The like results for `CC(C)c1c(O)nc(-n2ccnc2)nc1-c1cnn(CCO)c1` [Example 80, 6-[1-(2-Hydroxyethyl)-1H-pyrazol-4-yl]-2-(1H-imidazol-1-yl)-5-(propan-2-yl)-pyrimidin-4-ol] were, in that order, 51 nM and 3490 nM.
Turning to `CC(C)c1c(O)nc(-n2ccnc2)nc1-c1cnn(CC(C)(C)O)c1` [Example 81, 6-[1-(2-Hydroxy-2-methyl-propyl)-1H-pyrazol-4-yl]-2-(1H-imidazol-1-yl)-5-(propan-2-yl)pyrimidin-4-ol], the IC50 at KDM5B is 60 nM; on KDM4C it was 4040 nM.
The like results for `CC(C)c1c(O)nc(-n2ccnc2)nc1-c1cccc(C(=O)N2CCOCC2)c1` [Example 82, 2-(1H-Imidazol-1-yl)-6-[3-(morpholine-4-carbonyl)-phenyl]-5-(propan-2-yl)-pyrimidin-4-ol] were, in that order, 73 nM and 7970 nM.
For `CC(C)c1c(O)nc(-n2ccnc2)nc1-c1ccccc1` [Example 83, 2-(1H-Imidazol-1-yl)-6-phenyl-5-(propan-2-yl)-pyrimidin-4-ol], the IC50 on KDM5B came to 89 nM; on KDM4C, 2690 nM.
The corresponding values for `Cc1noc(C)c1-c1nc(-n2ccnc2)nc(O)c1C(C)C` [Example 84, 6-(Dimethyl-1,2-oxazol-4-yl)-2-(1H-imidazol-1-yl)-5-(propan-2-yl)pyrimidin-4-ol] are 190 nM and 10700 nM.
The corresponding values for `CC(C)c1c(O)nc(-n2ccnc2)nc1-c1ccc(C(=O)NCC(=O)O)cc1` [Example 85, 2-({4-[6-Hydroxy-2-(1H-imidazol-1-yl)-5-(propan-2-yl)pyrimidin-4-yl]phenyl}-formamido)acetic acid] are 240 nM and 9710 nM.
Regarding `CC(C)Cc1ccc(-c2nc(-n3ccnc3)nc(O)c2C(C)C)cc1` [Example 86, 2-(1H-Imidazol-1-yl)-6-[4-(2-methylpropyl)phenyl]-5-(propan-2-yl)pyrimidin-4-ol], the IC50 on KDM5B (setting [1]) worked out at 1130 nM; against KDM4C, 10000 nM.
The corresponding values for `CC(C)c1c(O)nc(-n2ccnc2-c2ncccn2)nc1Cl` [Example 88, 6-Chloro-5-(propan-2-yl)-2-[2-(pyrimidin-2-yl)-1H-imidazol-1-yl]pyrimidin-4-ol] are 563 nM and 8260 nM.
Regarding `CC(C)c1c(O)nc(-n2ccnc2-c2ccccn2)nc1-c1cccc(CNS(C)(=O)=O)c1` [Example 89, N-({3-[6-Hydroxy-5-(propan-2-yl)-2-[2-(pyridin-2-yl)-1H-imidazol-1-yl]pyrimidin-4-yl]phenyl}methyl)methane-sulfonamide], the IC50 is 266 nM at KDM5B (setting [1]) and 20000 nM against KDM4C.
On to `CC(C)c1c(O)nc(-n2ccnc2)nc1-c1cnn(CC(=O)NCCCN(C)C)c1` [Example 90, N-[3-(Dimethylamino)-propyl]-2-{4-[6-hydroxy-2-(1H-imidazol-1-yl)-5-(propan-2-yl)pyrimidin-4-yl]-1H-pyrazol-1-yl}acetamide], for which the IC50 turned out to be 4 nM on KDM5B (setting [1]) and 410 nM against KDM4C.
Regarding `CC(C)c1c(O)nc(-n2ccnc2)nc1-c1cnn(CC(=O)NCCN(C)C)c1` [Example 91, N-[2-(Dimethylamino)ethyl]-2-{4-[6-hydroxy-2-(1H-imidazol-1-yl)-5-(propan-2-yl)pyrimidin-4-yl]-1H-pyrazol-1-yl}acetamide], the IC50 against KDM5B stood at 5 nM; against KDM4C, 634 nM.
The corresponding values for `CC(C)c1c(O)nc(-n2ccnc2)nc1-c1cnn(CC(=O)NCCN2CCC(O)CC2)c1` [Example 92, 2-{4-[6-Hydroxy-2-(1H-imidazol-1-yl)-5-(propan-2-yl)pyrimidin-4-yl]-1H-pyrazol-1-yl}-N-[2-(4-hydroxypiperidin-1-yl)ethyl]-acetamide] are 6 nM and 525 nM.
For the compound `CC(C)c1c(O)nc(-n2ccnc2)nc1-c1cnn(CC(=O)NCCCCN(C)C)c1` [Example 93, N-[4-(Dimethylamino)butyl]-2-{4-[6-hydroxy-2-(1H-imidazol-1-yl)-5-(propan-2-yl)pyrimidin-4-yl]-1H-pyrazol-1-yl}acetamide], the IC50 turned out to be 6 nM at KDM5B and 477 nM on KDM4C.
Consider `CC(C)c1c(O)nc(-n2ccnc2)nc1-c1cnn(CC(=O)NCCN)c1` [Example 94, N-(2-Aminoethyl)-2-{4-[6-hydroxy-2-(1H-imidazol-1-yl)-5-(propan-2-yl)pyrimidin-4-yl]-1H-pyrazol-1-yl}-acetamide], for which the IC50 came to 6 nM on KDM5B (setting [1]) and 340 nM on KDM4C.
On to `CNCCN(C)C(=O)Cn1cc(-c2nc(-n3ccnc3)nc(O)c2C(C)C)cn1` [Example 95, 2-{4-[6-Hydroxy-2-(1H-imidazol-1-yl)-5-(propan-2-yl)pyrimidin-4-yl]-1H-pyrazol-1-yl}-N-methyl-N-[2-(methylamino)ethyl]-acetamide], for which the values for the IC50 at KDM5B and at KDM4C were 6 nM and 278 nM, respectively.
For `CC(C)c1c(O)nc(-n2ccnc2)nc1-c1cnn(CC(=O)NCCN2CCC(F)(F)CC2)c1` [Example 96, N-[2-(4,4-Difluoropiperidin-1-yl)ethyl]-2-{4-[6-hydroxy-2-(1H-Imidazol-1-yl)-5-(propan-2-yl)pyrimidin-4-yl]-1H-pyrazol-1-yl}acetamide], the IC50 on KDM5B was found to be 7 nM; against KDM4C it was 779 nM.
The corresponding values for `CC(C)c1c(O)nc(-n2ccnc2)nc1-c1cnn(CC(=O)NCC2CN(C)CCO2)c1` (stereo not drawn) [Example 97, 2-{4-[6-Hydroxy-2-(1H-imidazol-1-yl)-5-(propan-2-yl)pyrimidin-4-yl]-1H-pyrazol-1-yl}-N-[(4-methyl-morpholin-2-yl)methyl]-acetamide] are 7 nM and 613 nM.
Regarding `CC(C)c1c(O)nc(-n2ccnc2)nc1-c1cnn(CC(=O)N2CCCC(N)C2)c1` (stereo not drawn) [Example 98, 1-(3-Aminopiperidin-1-yl)-2-{4-[6-hydroxy-2-(1H-imidazol-1-yl)-5-(propan-2-yl)pyrimidin-4-yl]-1H-pyrazol-1-yl}ethan-1-one], the IC50 turned out to be 8 nM on KDM5B and 505 nM against KDM4C.
Regarding `CC(C)c1c(O)nc(-n2ccnc2)nc1-c1cnn(CC(=O)N2CCN(C)CC2)c1` [Example 99, 2-{4-[6-Hydroxy-2-(1H-imidazol-1-yl)-5-(propan-2-yl)pyrimidin-4-yl]-1H-pyrazol-1-yl}-1-(4-methyl-piperazin-1-yl)ethan-1-one], the IC50 on KDM5B (setting [1]) is 10 nM; at KDM4C, 455 nM.
Consider `CC(C)c1c(O)nc(-n2ccnc2)nc1-c1cnn(CC(=O)NCCN2CCOCC2)c1` [Example 100, 2-{4-[6-Hydroxy-2-(1H-imidazol-1-yl)-5-(propan-2-yl)pyrimidin-4-yl]-1H-pyrazol-1-yl}-N-[2-(morpholin-4-yl)ethyl]-acetamide], for which the IC50 came to 12 nM at KDM5B and 1260 nM against KDM4C.
As to `CC(C)c1c(O)nc(-n2ccnc2)nc1-c1cnn(CC(=O)N2CCC(C#N)C2)c1` (stereo not drawn) [Example 101, 1-(2-{4-[6-Hydroxy-2-(1H-imidazol-1-yl)-5-(propan-2-yl)pyrimidin-4-yl]-1H-pyrazol-1-yl}acetyl)-pyrrolidine-3-carbonitrile], the values for the IC50 against KDM5B and against KDM4C were 12 nM and 881 nM, respectively.
